Laboratory results reported in patent US12077503B2, “Substituted cyclic amides and their use as herbicides” (FMC CORPORATION, priority 2015, dated 2024).
Like-named read-outs stand apart in the source and are kept apart here.

Assays:
[1] = system: barnyardgrass (Echinochloa crus-galli); assay: Test A preemergence; type: in vivo; conditions: Echinochloa crus-galli, pre-emergence, 240 h; for pest or weed control at 125 g/ha: 125 g ai/ha; for pest or weed control at 500 g/ha: 500 g ai/ha
Summary of the method: (§1)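 Each rating is a visual injury score from 0 to 100 given about 10 d after treatment, judged against untreated controls kept alongside in the greenhouse. In loam soil–sand blend, seeds got a preemergence directed soil spray, while postemergence plants were 2 to 10 cm tall at spraying.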

[2] = system: ragweed (common ragweed, Ambrosia elatior); assay: Test A preemergence; type: in vivo; conditions: Ambrosia artemisiifolia, pre-emergence, 240 h; for pest or weed control at 125 g/ha: 125 g ai/ha; for pest or weed control at 500 g/ha: 500 g ai/ha
Summary of the method: as §1

[3] = system: ryegrass, Italian (Italian ryegrass, Lolium multiflorum); assay: Test A preemergence; type: in vivo; conditions: Lolium multiflorum, pre-emergence, 240 h; for pest or weed control at 125 g/ha: 125 g ai/ha; for pest or weed control at 500 g/ha: 500 g ai/ha
Summary of the method: as §1

Kochia (Kochia scoparia) = assay: Test A preemergence; type: in vivo; conditions: Bassia scoparia, pre-emergence, 240 h; for pest or weed control at 125 g/ha: 125 g ai/ha; for pest or weed control at 500 g/ha: 500 g ai/ha
Summary of the method: as §1

[4] = system: giant foxtail (Setaria faberii); assay: Test A preemergence; type: in vivo; conditions: Setaria faberi, pre-emergence, 240 h; for pest or weed control at 125 g/ha: 125 g ai/ha; for pest or weed control at 500 g/ha: 500 g ai/ha
Summary of the method: as §1

[5] = system: pigweed (Amaranthus retroflexus); assay: Test A preemergence; type: in vivo; conditions: Amaranthus retroflexus, pre-emergence, 240 h; for pest or weed control at 125 g/ha: 125 g ai/ha; for pest or weed control at 500 g/ha: 500 g ai/ha
[6] = preemergence, visual rating after approx. 10 d, 0 to 100 scale where 0 is no effect and 100 is complete control, read-out: Plant response rating, Barnyardgrass
[7] = preemergence, 0 to 100 scale, 0 = no effect, 100 = complete control, read-out: Plant response rating, Barnyardgrass
[8] = preemergence, visual rating after approx. 10 d, 0 to 100 scale where 0 is no effect and 100 is complete control, read-out: Plant response rating, Ragweed
[9] = preemergence, 0 to 100 scale, 0 = no effect, 100 = complete control, read-out: Plant response rating, Ragweed
[10] = preemergence, visual rating after approx. 10 d, 0 to 100 scale where 0 is no effect and 100 is complete control, read-out: Plant response rating, Ryegrass, Italian
[11] = preemergence, visual rating after approx. 10 d, 0 to 100 scale where 0 is no effect and 100 is complete control, read-out: Plant response rating, Kochia
[12] = preemergence, 0 to 100 scale, 0 = no effect, 100 = complete control, read-out: Plant response rating, Kochia
[13] = preemergence, visual rating after approx. 10 d, 0 to 100 scale where 0 is no effect and 100 is complete control, read-out: Plant response rating, Foxtail, Giant
[14] = preemergence, 0 to 100 scale, 0 = no effect, 100 = complete control, read-out: Plant response rating, Foxtail, Giant
[15] = preemergence, visual rating after approx. 10 d, 0 to 100 scale where 0 is no effect and 100 is complete control, read-out: Plant response rating, Pigweed
[16] = preemergence, 0 to 100 scale, 0 = no effect, 100 = complete control, read-out: Plant response rating, Pigweed
[17] = preemergence, 0 to 100 scale (0 no effect, 100 complete control), read-out: Plant response rating, Barnyardgrass
[18] = Preemergence, 0 to 100 scale (0 no effect, 100 complete control), read-out: Plant response rating, Barnyardgrass
[19] = preemergence, 0 to 100 scale (0 no effect, 100 complete control), read-out: Plant response rating, Ragweed
[20] = Preemergence, 0 to 100 scale (0 no effect, 100 complete control), read-out: Plant response rating, Ragweed
[21] = preemergence, 0 to 100 scale (0 no effect, 100 complete control), read-out: Plant response rating, Ryegrass, Italian
[22] = Preemergence, 0 to 100 scale (0 no effect, 100 complete control), read-out: Plant response rating, Ryegrass, Italian
[23] = preemergence, 0 to 100 scale (0 no effect, 100 complete control), read-out: Plant response rating, Kochia
[24] = Preemergence, 0 to 100 scale (0 no effect, 100 complete control), read-out: Plant response rating, Kochia
[25] = preemergence, 0 to 100 scale (0 no effect, 100 complete control), read-out: Plant response rating, Foxtail, Giant
[26] = Preemergence, 0 to 100 scale (0 no effect, 100 complete control), read-out: Plant response rating, Foxtail, Giant
[27] = preemergence, 0 to 100 scale (0 no effect, 100 complete control), read-out: Plant response rating, Pigweed
[28] = Preemergence, 0 to 100 scale (0 no effect, 100 complete control), read-out: Plant response rating, Pigweed

CN1C[C@H](c2cc(F)cc(F)c2)[C@@H](C(=O)NC2CCc3ccccc32)C1=O (stereo partly drawn) [Compound 755]
pest or weed control at 125 g/ha [1, 6]: 0%
pest or weed control at 500 g/ha [1, 7]: 0%
pest or weed control at 125 g/ha [2, 8]: 0%
pest or weed control at 500 g/ha [2, 9]: 0%
pest or weed control at 125 g/ha [3, 10]: 0%
pest or weed control at 500 g/ha ([3]; preemergence, 0 to 100 scale, 0 = no effect, 100 = complete control, read-out: Plant response rating, Ryegrass, Italian): 0%
pest or weed control at 125 g/ha (Kochia (Kochia scoparia); [11]): 0%
pest or weed control at 500 g/ha (Kochia (Kochia scoparia); [12]): 0%
pest or weed control at 125 g/ha [4, 13]: 0%
pest or weed control at 500 g/ha [4, 14]: 0%
pest or weed control at 125 g/ha [5, 15]: 0%
pest or weed control at 500 g/ha [5, 16]: 0%
melting point: 135 to 139 °C

CN1C[C@H](c2nccs2)[C@@H](C(=O)Nc2cccc(F)c2F)C1=O [Compound 774]
pest or weed control at 125 g/ha [1, 6]: 0%
pest or weed control at 500 g/ha ([1]; Preemergence, visual injury vs untreated controls after approximately 10 d, read-out: Barnyardgrass plant response rating (0 to 100 scale where 0 is no effect and 100 is complete control)): 0%
pest or weed control at 125 g/ha [2, 8]: 0%
pest or weed control at 500 g/ha ([2]; Preemergence, visual injury vs untreated controls after approximately 10 d, read-out: Ragweed plant response rating (0 to 100 scale where 0 is no effect and 100 is complete control)): 0%
pest or weed control at 125 g/ha [3, 10]: 0%
pest or weed control at 500 g/ha ([3]; Preemergence, visual injury vs untreated controls after approximately 10 d, read-out: Ryegrass, Italian plant response rating (0 to 100 scale where 0 is no effect and 100 is complete control)): 0%
pest or weed control at 125 g/ha (Kochia (Kochia scoparia); [11]): 0%
pest or weed control at 500 g/ha (Kochia (Kochia scoparia); Preemergence, visual injury vs untreated controls after approximately 10 d, read-out: Kochia plant response rating (0 to 100 scale where 0 is no effect and 100 is complete control)): 0%
pest or weed control at 125 g/ha [4, 13]: 0%
pest or weed control at 500 g/ha ([4]; Preemergence, visual injury vs untreated controls after approximately 10 d, read-out: Foxtail, Giant plant response rating (0 to 100 scale where 0 is no effect and 100 is complete control)): 0%
pest or weed control at 125 g/ha [5, 15]: 0%
pest or weed control at 500 g/ha ([5]; Preemergence, visual injury vs untreated controls after approximately 10 d, read-out: Pigweed plant response rating (0 to 100 scale where 0 is no effect and 100 is complete control)): 0%
melting point: 133.9 to 140.7 °C

O=C1NC[C@H](c2cncc(C(F)(F)F)c2)[C@H]1C(=O)Nc1cccc(F)c1F [Compound 1394]
pest or weed control at 500 g/ha [1, 17]: 90%
pest or weed control at 125 g/ha [1, 18]: 90%
pest or weed control at 500 g/ha [2, 19]: 80%
pest or weed control at 125 g/ha [2, 20]: 20%
pest or weed control at 500 g/ha [3, 21]: 60%
pest or weed control at 125 g/ha [3, 22]: 50%
pest or weed control at 500 g/ha (Kochia (Kochia scoparia); [23]): 60%
pest or weed control at 125 g/ha (Kochia (Kochia scoparia); [24]): 40%
pest or weed control at 500 g/ha [4, 25]: 90%
pest or weed control at 125 g/ha [4, 26]: 90%
pest or weed control at 500 g/ha [5, 27]: 30%
pest or weed control at 125 g/ha [5, 28]: 0%
melting point: 206 to 209 °C

O=C1NC[C@H](c2cc(C(F)(F)F)ccn2)[C@H]1C(=O)Nc1cccc(F)c1F (racemic) [Compound 1376]
pest or weed control at 500 g/ha [1, 17]: 100%
pest or weed control at 125 g/ha [1, 18]: 90%
pest or weed control at 500 g/ha [2, 19]: 0%
pest or weed control at 125 g/ha [2, 20]: 0%
pest or weed control at 500 g/ha [3, 21]: 70%
pest or weed control at 125 g/ha [3, 22]: 20%
pest or weed control at 500 g/ha (Kochia (Kochia scoparia); [23]): 0%
pest or weed control at 125 g/ha (Kochia (Kochia scoparia); [24]): 0%
pest or weed control at 500 g/ha [4, 25]: 100%
pest or weed control at 125 g/ha [4, 26]: 90%
pest or weed control at 500 g/ha [5, 27]: 0%
pest or weed control at 125 g/ha [5, 28]: 0%
melting point: 146 to 150 °C

C=CCOc1cccc(C2CN(C)C(=O)C2C(=O)Nc2ccccc2F)c1 (stereo not drawn) [Compound 1329]
pest or weed control at 500 g/ha [1, 17]: 100%
pest or weed control at 125 g/ha [1, 18]: 90%
pest or weed control at 500 g/ha [2, 19]: 20%
pest or weed control at 125 g/ha [2, 20]: 0%
pest or weed control at 500 g/ha [3, 21]: 40%
pest or weed control at 125 g/ha [3, 22]: 0%
pest or weed control at 500 g/ha (Kochia (Kochia scoparia); [23]): 50%
pest or weed control at 125 g/ha (Kochia (Kochia scoparia); [24]): 50%
pest or weed control at 500 g/ha [4, 25]: 90%
pest or weed control at 125 g/ha [4, 26]: 90%
pest or weed control at 500 g/ha [5, 27]: 30%
pest or weed control at 125 g/ha [5, 28]: 0%
melting point: 81 to 84 °C

CN1CC[C@H](c2cccc(C(F)(F)F)c2)[C@@H](C(=O)Nc2ccccc2F)C1=O [Compound 1331]
pest or weed control at 500 g/ha [1, 17]: 90%
pest or weed control at 125 g/ha [1, 18]: 90%
pest or weed control at 500 g/ha [2, 19]: 0%
pest or weed control at 125 g/ha [2, 20]: 0%
pest or weed control at 500 g/ha [3, 21]: 80%
pest or weed control at 125 g/ha [3, 22]: 20%
pest or weed control at 500 g/ha (Kochia (Kochia scoparia); [23]): 0%
pest or weed control at 125 g/ha (Kochia (Kochia scoparia); [24]): 0%
pest or weed control at 500 g/ha [4, 25]: 100%
pest or weed control at 125 g/ha [4, 26]: 90%
pest or weed control at 500 g/ha [5, 27]: 0%
pest or weed control at 125 g/ha [5, 28]: 0%
melting point: 113 to 116 °C

CN1C[C@H](c2nccs2)[C@@H](C(=O)Nc2ccccc2F)C1=O [Compound 773]
pest or weed control at 125 g/ha [1, 6]: 0%
pest or weed control at 500 g/ha [1, 7]: 0%
pest or weed control at 125 g/ha [2, 8]: 0%
pest or weed control at 500 g/ha [2, 9]: 0%
pest or weed control at 125 g/ha [3, 10]: 0%
pest or weed control at 125 g/ha (Kochia (Kochia scoparia); [11]): 0%
pest or weed control at 500 g/ha (Kochia (Kochia scoparia); [12]): 0%
pest or weed control at 125 g/ha [4, 13]: 0%
pest or weed control at 500 g/ha [4, 14]: 0%
pest or weed control at 125 g/ha [5, 15]: 0%
pest or weed control at 500 g/ha [5, 16]: 0%
melting point: 69.5 to 77 °C
